Laboratory results taken from the supplement of paper PMC10307832.

Columns and labels:
Assay in all cases: relative viability (nuclei count vs DMSO), 5 days (fraction); higher = more cells survive
Ispinesib + Crizotinib = compound: Cc1ccc(C(=O)N(CCCN)[C@@H](c2nc3cc(Cl)ccc3c(=O)n2Cc2ccccc2)C(C)C)cc1 [Ispinesib] + C[C@@H](Oc1cc(-c2cnn(C3CCNCC3)c2)cnc1N)c1c(Cl)ccc(F)c1Cl [Crizotinib] (partner 1 µM)
Procedure, shortened: (§1)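 Five library-drug doses in √10 steps were combined with a fixed anchor-drug dose, or a single drug was given alone, by pin tool to lung cancer cell lines in 1536-well plates the day after seeding. Nuclei were stained and counted after 5 days. Relative viability is the nuclei count in treated wells over that in vehicle wells, taken as the median of duplicate plates.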

Linsitinib + Phenformin = compound: C[C@]1(O)C[C@@H](c2nc(-c3ccc4ccc(-c5ccccc5)nc4c3)c3c(N)nccn32)C1 [Linsitinib] + N=C(N)NC(=N)NCCc1ccccc1 [Phenformin] (partner 250 µM)
Procedure, shortened: as §1

Ispinesib + Vorinostat = compound: Cc1ccc(C(=O)N(CCCN)[C@@H](c2nc3cc(Cl)ccc3c(=O)n2Cc2ccccc2)C(C)C)cc1 [Ispinesib] + O=C(CCCCCCC(=O)Nc1ccccc1)NO [Vorinostat] (partner 1 µM)
Procedure, shortened: as §1

Linsitinib + Alpelisib = compound: C[C@]1(O)C[C@@H](c2nc(-c3ccc4ccc(-c5ccccc5)nc4c3)c3c(N)nccn32)C1 [Linsitinib] + Cc1nc(NC(=O)N2CCC[C@H]2C(N)=O)sc1-c1ccnc(C(C)(C)C(F)(F)F)c1 [Alpelisib] (partner 2 µM)
Procedure, shortened: as §1

Cell Line	relative viability (Ispinesib + Crizotinib; first compound 0.001 µM)	relative viability (Ispinesib + Crizotinib; first compound 0.003162 µM)	relative viability (Ispinesib + Crizotinib; first compound 0.01 µM)	relative viability (Ispinesib + Crizotinib; first compound 0.03162 µM)	relative viability (Ispinesib + Crizotinib; first compound 0.1 µM)	relative viability (Linsitinib + Phenformin; first compound 0.01 µM)	relative viability (Linsitinib + Phenformin; first compound 0.03162 µM)	relative viability (Linsitinib + Phenformin; first compound 0.1 µM)	relative viability (Linsitinib + Phenformin; first compound 0.3162 µM)	relative viability (Linsitinib + Phenformin; first compound 1 µM)	relative viability (Ispinesib + Vorinostat; first compound 0.001 µM)	relative viability (Ispinesib + Vorinostat; first compound 0.003162 µM)	relative viability (Ispinesib + Vorinostat; first compound 0.01 µM)	relative viability (Ispinesib + Vorinostat; first compound 0.03162 µM)	relative viability (Ispinesib + Vorinostat; first compound 0.1 µM)	relative viability (Linsitinib + Alpelisib; first compound 0.01 µM)	relative viability (Linsitinib + Alpelisib; first compound 0.03162 µM)	relative viability (Linsitinib + Alpelisib; first compound 0.1 µM)	relative viability (Linsitinib + Alpelisib; first compound 0.3162 µM)	relative viability (Linsitinib + Alpelisib; first compound 1 µM)
201T	1.05	1.09	1.14	1.04	1.01	0.405	0.475	0.434	0.449	0.338	1	1.01	1.02	0.908	0.28	1.01	1.04	1.1	1.06	1.04
A549	0.88	0.903	0.849	0.0553	0.181	0.2	0.264	0.173	0.0926	0.151	–	–	–	–	–	0.744	0.668	0.634	0.423	0.421
A-427	0.886	1.23	0.968	0.887	0.369	0.383	0.321	0.301	–	0.233	0.878	0.953	0.981	0.385	0.217	1.11	1.02	1.05	–	0.997
ABC-1	1.1	1.15	0.908	0.248	0.334	0.241	0.209	0.238	0.237	0.233	1.14	1.3	1.05	–	0.548	0.925	0.726	0.912	0.76	0.719
BEN	1.08	1.01	1.04	0.507	0.431	0.28	0.24	0.245	–	0.292	0.538	0.676	0.642	0.478	0.374	1.09	1.02	0.935	0.662	1.04
CAL-12T	0.688	0.731	0.394	0.229	0.282	0.573	0.573	0.619	0.528	0.558	0.839	0.914	0.583	0.585	0.24	1.18	1.18	1.24	0.99	1.07
COR-L23	0.68	0.729	0.882	0.311	0.248	0.434	0.414	0.467	0.347	0.469	0.422	0.448	0.342	0.14	0.175	0.725	0.907	0.769	0.623	0.55
COR-L 105	0.721	0.759	0.47	0.263	0.411	0.554	0.451	0.49	0.478	0.406	0.933	0.51	1.04	0.49	0.522	0.843	0.869	1.01	0.761	0.829
Calu-6	0.992	0.618	0.527	0.169	0.265	–	–	–	–	–	–	–	–	–	–	1.01	0.919	1.04	1.03	0.794
